Measurements reported in patent US20230066011A1, “PYRROLOPYRIMIDINE DERIVATIVE, AND PHARMACEUTICAL COMPOSITION FOR PREVENTING OR TREATING PROTEIN KINASE-RELATED DISEASE COMPRISING SAME AS ACTIVE INGREDIENT” (VORONOI CO., LTD., priority 2019, published 2023).

How the values were obtained:
human GST-CLK1 = molecular target: T1, human GST-CLK1 (Homo sapiens, UniProt P49759); experiment: GST-CLK1 enzyme inhibition, ADP-Glo kinase assay; type: biochemical; conditions: ATP 10 μM, GST-CLK1 129-end
T1 construct: purified human GST-CLK1 (129-end, SignalChem) enzyme; purchased SignalChem
T1 sequence (P49759 129-484 limits assumed): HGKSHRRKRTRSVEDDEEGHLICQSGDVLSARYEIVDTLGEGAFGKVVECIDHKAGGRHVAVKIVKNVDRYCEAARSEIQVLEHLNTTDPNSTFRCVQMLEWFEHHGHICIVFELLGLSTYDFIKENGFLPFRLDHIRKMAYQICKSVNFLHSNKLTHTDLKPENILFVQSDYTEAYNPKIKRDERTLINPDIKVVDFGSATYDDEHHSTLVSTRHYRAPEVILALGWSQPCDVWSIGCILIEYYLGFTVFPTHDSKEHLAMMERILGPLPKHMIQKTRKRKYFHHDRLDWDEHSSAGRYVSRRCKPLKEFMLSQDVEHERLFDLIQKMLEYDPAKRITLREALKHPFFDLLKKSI
Procedure: (§1) To evaluate an inhibitory activity of the compound according to the present invention against LRRK2, LRRK2 (G2019S), DYRK1, CLK1, and TTK kinases, experiments were performed as follows.
(§2) Each of the Example compounds was reacted with a purified human GST-CLK1 (129-end, SignalChem) enzyme to evaluate an ability to inhibit an enzyme using a method as described below. A composition of 40 mM Tris-HCl (pH 7.4), 20 mM MgCl2, 0.5 mg/mL BSA, and 50 μM DTT was used as a reaction buffer, and all reactions of test substances were performed in the reaction buffer. In the test, purified ATP (10 μM) and a specific substrate solution were reacted with a human GST-CLK1 (129-end, 3 ng) enzyme at 25° C. for an hour, and the enzyme activities were then determined using an in vitro ADP-Glo™ kinase assay (Promega). An enzyme-activity reaction solution, an ADP-Glo reaction solution, and an enzyme-ability detection solution were reacted at a ratio of 2:2:1 to measure a degree of inhibition of the enzyme activity with luminescence. The degree of inhibition of the enzyme activity according to the treatment concentration of each of the compounds was calculated based on the fluorescence of the enzyme activity of the solvent control which was not treated with the compound. In this case, the concentration of each of the compounds inhibiting 50% of the enzyme activity was determined to be an IC50 (nM) value. The IC50 (nM) value of each of the compounds was determined from 3 sets of data, and calculated using Prism (Version 5.01; GraphPad) software.

human GST-DYRK1A = molecular target: T2, human GST-DYRK1A (Homo sapiens, UniProt Q13627); experiment: GST-DYRK1A enzyme inhibition, ADP-Glo kinase assay; type: biochemical; conditions: ATP 10 μM, GST-DYRK1A full length, read-out: DYRK1 IC50
T2 construct: purified human GST-DYRK1A (full length, Thermo Scientifics) enzyme; purchased Thermo Scientifics
Procedure: as §1
as §2, with “GST-DYRK1A (full length, Thermo Scientifics)” for “GST-CLK1 (129-end, SignalChem)”, “GST-DYRK1A (full length, 10” for “GST-CLK1 (129-end, 3”, “value, and the” for “value. The”

Row | Structure (SMILES) | IC50 (human GST-CLK1) [nM] | IC50 (human GST-DYRK1A) [nM]
1 | CNc1nc(Nc2ccc(P3(=O)CCN(C4CC4)CC3)cc2OC)nc2[nH]cc(C#N)c12 [Example 279, 2-((4-(1-cyclopropyl-4-oxido-1,4-azaphosphinan-4-yl)-2-methoxyphenyl)amino)-4-(methylamino)-7H-pyrrolo[2,3-d]pyrimidine-5-carbonitrile] | 301 to 1000 | 301 to 1000
2 | CCNc1nc(Nc2ccc(C(=O)N3CCN(C4COC4)CC3)c3c2OCCO3)nc2[nH]cc(C#N)c12 [Example 265, 4-(ethylamino)-2-((8-(4-(oxetan-3-yl)piperazine-1-carbonyl)-2,3-dihydrobenzo[b][1,4]dioxin-5-yl)amino)-7H-pyrrolo[2,3-d]pyrimidine-5-carbonitrile] | 101 to 300 | 101 to 300
3 | COc1cc(P2(=O)CCN(C3COC3)CC2)ccc1Nc1nc(NCC2CCC2)c2c(C#N)c[nH]c2n1 [Example 307, 4-((cyclo-butylmethyl)amino)-2-((2-methoxy-4-(1-(oxetan-3-yl)-4-oxido-1,4-azaphosphinan-4-yl)phenyl)amino)-7H-pyrrolo[2,3-d]pyrimidine-5-carbonitrile] | 101 to 300 | 301 to 1000
4 | CC[C@@H](C)Nc1nc(Nc2ccc(P(C)(C)=O)cc2OC)nc2[nH]cc(C#N)c12 [Example 266, (R)-4-(sec-butylamino)-2-((4-(dimethylphosphoryl)-2-methoxyphenyl)amino)-7H-pyrrolo[2,3-d]pyrimidine-5-carbonitrile] | < 100 | 101 to 300
5 | CC[C@@H](C)Nc1nc(Nc2ccc(S(C)(=O)=O)cc2OC)nc2[nH]cc(C#N)c12 [Example 262, (R)-4-(sec-butylamino)-2-((2-methoxy-4-(methylsulfonyl)phenyl)amino)-7H-pyrrolo[2,3-d]pyrimidine-5-carbonitrile] | 301 to 1000 | 301 to 1000
6 | CC[C@H](C)Nc1nc(Nc2ccc(P(C)(C)=O)cc2OC)nc2[nH]cc(C#N)c12 [Example 267, (S)-4-(sec-butylamino)-2-((4-(dimethylphosphoryl)-2-methoxyphenyl)amino)-7H-pyrrolo[2,3-d]pyrimidine-5-carbonitrile] | 301 to 1000 | 301 to 1000
7 | N#Cc1c[nH]c2nc(Nc3ccc(C(=O)N4CCOCC4)c4c3OCC4)nc(NC3CCC3)c12 [Example 360, 4-(cyclo-butylamino)-2-((4-(morpholine-4-carbonyl)-2,3-dihydrobenzo-furan-7-yl)amino)-7H-pyrrolo[2,3-d]pyrimidine-5-carbonitrile] | < 100 | 101 to 300
8 | COc1cc(P(C)(C)=O)ccc1Nc1nc(NC2CC2)c2c(C#N)c[nH]c2n1 [Example 116, 4-(cyclopropylamino)-2-((4-(dimethylphosphoryl)-2-methoxyphenyl)amino)-7H-pyrrolo[2,3-d]pyrimidine-5-carbonitrile] | < 100 | 301 to 1000
9 | COc1cc(P(C)(C)=O)ccc1Nc1nc(N[C@H]2CCOC2)c2c(C#N)c[nH]c2n1 [Example 271, (S)-2-((4-(dimethylphosphoryl)-2-methoxyphenyl)amino)-4-((tetrahydrofuran-3-yl)amino)-7H-pyrrolo[2,3-d]pyrimidine-5-carbonitrile] | 101 to 300 | 301 to 1000
10 | N#Cc1c[nH]c2nc(Nc3ccc(C(=O)N4CCOCC4)c4c3OCCO4)nc(N[C@H]3CCOC3)c12 [Example 128, (S)-2-((8-(morpholine-4-carbonyl)-2,3-dihydrobenzo[b][1,4]dioxin-5-yl)amino)-4-((tetrahydrofuran-3-yl)amino)-7H-pyrrolo[2,3-d]pyrimidine-5-carbonitrile] | 101 to 300 | 301 to 1000
11 | COCCNc1nc(Nc2ccc(S(C)(=O)=O)cc2OC)nc2[nH]cc(C(N)=O)c12 [Example 234, 2-((2-methoxy-4-(methylsulfonyl)phenyl)amino)-4-((2-methoxy)amino)-7H-pyrrolo[2,3-d]pyrimidine-5-carboxamide] | 301 to 1000 | 301 to 1000
12 | CCCNc1nc(Nc2ccc(C(=O)N3CCOCC3)c3c2OCC3)nc2[nH]cc(C(F)(F)F)c12 [Example 445, morpholino(7-((4-(propylamino)-5-(trifluoromethyl)-7H-pyrrolo[2,3-d]pyrimidin-2-yl)amino)-2,3-dihydrobenzo-furan-4-yl)methanone] | < 100 | < 100
13 | COc1cc(P2(=O)CCN(C3CC3)CC2)ccc1Nc1nc(NC2CCCCC2)c2c(C#N)c[nH]c2n1 [Example 323, 4-(cyclo-hexylamino)-2-((4-(1-cyclopropyl-4-oxido-1,4-azaphosphinan-4-yl)-2-methoxyphenyl)a-mino)-7H-pyrrolo[2,3-d]pyrimidine-5-carbonitrile] | 301 to 1000 | 101 to 300
14 | COc1cc(P(C)(C)=O)ccc1Nc1nc(NCC2CC2)c2c(C#N)c[nH]c2n1 [Example 273, 4-((cyclopropylmethyl)amino)-2-((4-(dimethylphosphoryl)-2-methoxyphenyl)amino)-7H-pyrrolo[2,3-d]pyrimidine-5-carbonitrile] | 101 to 300 | 301 to 1000
15 | N#Cc1c[nH]c2nc(Nc3ccc(C(=O)N4CCN(C5COC5)CC4)c4c3OCCO4)nc(NCC3CC3)c12 [Example 317, 4-((cyclo-propylmeth-yl)amino)-2-((8-(4-(oxetan-3-yl)piperazine-1-carbonyl)-2,3-dihydrobenzo[b] [1,4]dioxin-5-yl)amino)-7H-pyrrolo[2,3-d]pyrimidine-5-carbonitrile] | < 100 | 301 to 1000
16 | CCCNc1nc(Nc2ccc(P(C)(C)=O)cc2OC)nc2[nH]cc(C#N)c12 [Example 254, 2-((4-(dimethylphosphoryl)-2-methoxyphenyl)amino)-4-(propylamino)-7H-pyrrolo[2,3-d]pyrimidine-5-carbonitrile] | 101 to 300 | 101 to 300
17 | CC[C@H](C)Nc1nc(Nc2ccc(S(=O)(=O)N3CCC(N4CCOCC4)CC3)cc2OC)nc2[nH]ccc12 [Example 17, (S)-N^4-(sec-butyl)-N^2-(2-methoxy-4-((4-morpholinopiperidin-1-yl)sulfonyl)phenyl)-7H-pyrrolo[2,3-d]pyrimidine-2,4-diamine] | 301 to 1000 | 301 to 1000
18 | COc1cc(P2(=O)CCN(C3COC3)CC2)ccc1Nc1nc(NCC2CC2)c2c(C#N)c[nH]c2n1 [Example 305, 4-((cyclo-propylmeth-yl)amino)-2-((2-methoxy-4-(1-(oxetan-3-yl)-4-oxido-1,4-azaphosphinan-4-yl)phenyl)amino)-7H-pyrrolo[2,3-d]pyrimidine-5-carbonitrile] | < 100 | 101 to 300
19 | COc1cc(P(C)(C)=O)ccc1Nc1nc(NCC2CCCC2)c2c(C#N)c[nH]c2n1 [Example 274, 4-((cyclopentylmethyl)amino)-2-((4-(dimethylphosphoryl)-2-methoxyphenyl)amino)-7H-pyrrolo[2,3-d]pyrimidine-5-carbonitrile] | 301 to 1000 | 301 to 1000
20 | CNc1nc(Nc2ccc(P3(=O)CCN(C4COC4)CC3)cc2OC)nc2[nH]cc(C#N)c12 [Example 154, 2-((2-methoxy-4-(1-(oxetan-3-yl)-4-oxido-1,4-azaphosphinan-4-yl)phenyl)amino)-4-(methylamino)-7H-pyrrolo[2,3-d]pyrimidine-5-carbonitrile] | 301 to 1000 | 301 to 1000
21 | CC(C)CNc1nc(Nc2ccc(C(=O)N3CCC(N4CCOCC4)CC3)c3c2OCCO3)nc2[nH]cc(C#N)c12 [Example 139, 4-(isobutylamino)-2-((8-(4-morpholinopiperidine-1-carbonyl)-2,3-dihydrobenzo[b][1,4]dioxin-5-yl)amino)-7H-pyrrolo[2,3-d]pyrimidine-5-carbonitrile] | < 100 | 301 to 1000
22 | COc1cc(P2(=O)CCN(C3COC3)CC2)ccc1Nc1nc(NC2CCCCC2)c2cc[nH]c2n1 [Example 240, 4-(4-((4-(cyclohexylamino)-7H-pyrrolo[2,3-d]pyrimidin-2-yl)amino)-3-methoxyphenyl)-1-(oxetan-3-yl)-1,4-azaphosphinane 4-oxide] | 301 to 1000 | 301 to 1000
